Laboratory results taken from PubChem BioAssay (NCI).
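All cell lines were grown in 96-well plates and treated with compound for 48 hours. At the GI50, growth is halved. The concentration for full growth arrest is given as TGI.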

Assays:
Assay in all cases: NCI-60 cell line screen, 48 h
[1] = system: 786-0 renal
[2] = system: A498 renal
[3] = system: BT-549 breast
[4] = system: HCT-15 colon
[5] = system: HOP-62 NSCLC
[6] = system: HS 578T breast
[7] = system: LOX IMVI melanoma
[8] = system: PC-3 prostate
[9] = system: SK-OV-3 ovarian
[10] = system: UO-31 renal

Row | SMILES | GI50 [1] [µM] | TGI [1] [µM] | GI50 [2] [µM] | TGI [2] [µM] | GI50 [3] [µM] | TGI [3] [µM] | GI50 [4] [µM] | TGI [4] [µM] | GI50 [5] [µM] | TGI [5] [µM] | GI50 [6] [µM] | TGI [6] [µM] | GI50 [7] [µM] | TGI [7] [µM] | GI50 [8] [µM] | TGI [8] [µM] | GI50 [9] [µM] | TGI [9] [µM] | GI50 [10] [µM] | TGI [10] [µM]
1 | COc1cc(C(=O)N2CCN(c3ccccc3OC)CC2)c(N)cc1OCc1ccccc1 | 45.6 | > 100 | 30.6 | 81.2 | 27.6 | 66.8 | 34.9 | > 100 | 34.4 | > 100 | 42.7 | > 100 | 27.2 | 71.3 | 23.8 | > 100 | 49.9 | > 100 | 22.4 | > 100
2 | COc1ccc(Cn2cc3c(c2-c2ccc(O)cc2)CCc2cnoc2-3)cc1 | 0.695 | 19.1 | 0.203 | 0.766 | 10 | 26.7 | 0.395 | 21.6 | 0.49 | 18.4 | 0.252 | 6.62 | 0.713 | 18.8 | 0.653 | 44.5 | 0.34 | 14.3 | 0.653 | 18.7
3 | C=C(C)[C@@H]1CC[C@]2(C(=O)O)CC[C@]3(C)[C@H](CC[C@@H]4[C@@]5(C)C[C@@H](CC#Cc6ccc(Br)cc6)C(=O)C(C)(C)[C@@H]5CC[C@]43C)[C@@H]12 | 5.27 | 22.2 | 2.42 | 7.29 | 21 | 55 | 25.8 | > 100 | 12.4 | 38.4 | 6.26 | > 100 | 5.65 | > 100 | 3.31 | 15.2 | 20.2 | > 100 | > 100 | > 100
4 | CC(=O)Nc1ccc2c(c1)C(=O)c1cccc(F)c1-2 | – | > 100 | 31.3 | > 100 | – | > 100 | – | > 80.1 | – | > 100 | – | > 100 | – | > 100 | – | > 100 | – | > 100 | – | > 100
5 | O=C(N/N=c1/ccoc2cccnc12)N1CCN(c2ncccn2)CC1 | 0.291 | 2.59 | 0.503 | 2.87 | 0.321 | 3.37 | < 0.01 | 10.1 | 0.0436 | 7.42 | 1.07 | 24.5 | < 0.0158 | 5.12 | < 0.01 | 6.38 | 0.194 | 4.55 | 0.397 | 3.96
6 | Cn1c(=O)c2[nH]c(C3CC(=O)CC(c4nc5c([nH]4)c(=O)n(C)c(=O)n5C)N3)nc2n(C)c1=O (stereo unspecified) | – | > 100 | – | > 100 | – | > 100 | – | > 100 | – | > 100 | – | > 100 | – | > 100 | – | > 100 | – | > 100 | – | > 100
7 | N#Cc1c(-c2ccc(Cl)cc2)c(-c2ccc(Cl)cc2)nn(CCOC(=O)CCC(=O)O)c1=O | – | 55.3 | – | 9.23 | – | > 100 | – | 4.97 | – | 34.8 | – | 59.7 | – | > 84.3 | – | > 48.4 | – | 30.8 | – | 50
